Laboratory results from patent US9346797B1, “2-amino 6-(difluoromethyl)-5,5-difluoro-6-phenyl-3,4,5,6-tetrahydropyridines as BACE1 inhibitors” (H. Lundbeck A/S, priority 2014, dated 2016).

Columns and labels:
human BACE1 = human BACE1 (Homo sapiens (Human), UniProt P56817); test: BACE1 binding assay (SPA-based radioligand binding); details: pH 4.5, Ki calculated from IC50
Experimental: The binding assay was performed as SPA-based assay using a biotinylated form of human BACE1 recombinantly expressed and subsequently purified from Freestyle HEK293 cells. The binding assay was run in a 50 mM sodium acetate buffer, pH 4.5 containing 50 mM NaCl and 0.03% Tween-20 in white clear bottom 384 plates (Corning #3653). 10 nM (final concentration) radioligand ([^3H]—N-((1S,2R)-1-benzyl-3-cyclopropylamino-2-hydroxy-propyl)-5-(methanesulfonyl-methyl-amino)-N—((R)-1-phenyl-ethyl)-isophthalamide) (TRQ11569 purchased from GE Healthcare) was mixed with test compound at a given concentration, 6 nM (final concentration) human BACE1 and 25 μg Streptavidin coated PVT core SPA beads (RPNQ0007, GE Healthcare Life Sciences) in a total volume of 40 μl. Several concentrations of each test compound were tested in the assay for IC50 determination. The plates were incubated for one hour at room temperature and counted in a Wallac Trilux counter. Total and non-specific binding were determined using buffer and 1 μM (final concentration) of the high affinity BACE1 reference inhibitor (S)-6-[3-chloro-5-(5-prop-1-ynyl-pyridin-3-yl)-thiophen-2-yl]-2-imino-3,6-dimethyl-tetrahydro-pyrimidin-4-one, respectively. For each test compound, a IC50 value (the concentration mediating 50% inhibition of the specific binding of the radioligand) was determined from concentration-response curve and used to calculate the Ki from the equation Ki=IC50/(1+L/Kd), where L and Kd are the final concentration of the radioligand used in the assay and the dissociation constant of the radioligand, respectively. The Kd of the radioligand was determined from saturation binding experiments.

P-gp (MDR1) = test: MDCK-MDR1 assay (permeability/efflux); format: in vitro ADME; details: dog, Papp BA/Papp AB, 60-minute incubation, Pgp substrate when ≧2
Experimental: The permeability of the test compounds was assessed in MDCK-MDR1 cells that were cultured to confluency (4-6 days) in a 96 transwell plate. Test compounds were diluted with the transport buffer (HBSS+1% BSA) to a concentration of 0.5 μM and applied to the apical or basolateral side of the cell monolayer. Permeation of the test compounds from A to B direction or B to A direction was determined in triplicate over a 60-minute incubation time at 37° C. and 5% CO2 with a relative humidity of 95%. Test compounds were quantified by LC-MS/MS analysis based on the peaks area ratios of analyte/IS in both the receiver and donor wells of the transwell plate.
The apparent permeability coefficient Papp (cm/s) was calculated using the equation: Papp=(dCr/dt)×Vr/(A×C0)
Where dCr/dt is the cumulative concentration of compound in the receiver chamber as a function of time (μM/s); Vr is the solution volume in the receiver chamber (0.05 mL on the apical side; 0.25 mL on the basolateral side); A is the surface area for the transport, i.e. 0.0804 cm^2 for the area of the monolayer; CO is the initial concentration in the donor chamber (μM).
Compounds are classified Pgp substrates when efflux ratio (Papp BA/Papp AB) is ≧2.

Sequence of human BACE1 (P56817 46-501): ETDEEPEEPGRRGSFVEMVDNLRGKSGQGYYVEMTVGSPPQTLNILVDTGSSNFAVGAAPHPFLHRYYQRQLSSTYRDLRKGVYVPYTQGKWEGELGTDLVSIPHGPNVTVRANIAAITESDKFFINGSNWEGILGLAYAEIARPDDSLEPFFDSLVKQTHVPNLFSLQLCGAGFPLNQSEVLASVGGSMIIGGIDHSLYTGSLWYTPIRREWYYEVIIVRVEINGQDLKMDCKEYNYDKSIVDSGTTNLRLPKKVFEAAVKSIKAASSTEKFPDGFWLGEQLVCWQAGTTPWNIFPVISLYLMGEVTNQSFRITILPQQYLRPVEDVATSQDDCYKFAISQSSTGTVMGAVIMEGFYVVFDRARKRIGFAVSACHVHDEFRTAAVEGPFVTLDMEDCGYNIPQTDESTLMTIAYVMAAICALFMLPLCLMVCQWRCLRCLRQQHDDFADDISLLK

| Ki (human BACE1) [nM] | efflux ratio at 60 min, 0.5 μM (P-gp (MDR1)) | SMILES |
| --- | --- | --- |
| 18 | 1.16 | NC1=N[C@@](c2cc(NC(=O)c3ccc(Cl)cn3)ccc2F)(C(F)F)C(F)(F)CC1 [Compound 1, (S)—N-(3-(6-amino-2-(difluoromethyl)-3,3-difluoro-2,3,4,5-tetrahydropyridin-2-yl)-4-fluorophenyl)-5-chloropicolinamide] |
| 23 | 1.75 | NC1=N[C@@](c2cc(NC(=O)c3ccc(F)cn3)ccc2F)(C(F)F)C(F)(F)CC1 [Compound 2, (S)—N-(3-(6-amino-2-(difluoromethyl)-3,3-difluoro-2,3,4,5-tetrahydropyridin-2-yl)-4-fluorophenyl)-5-fluoropicolinamide] |
| 20 | 4.01 | Cc1nc(C(=O)Nc2ccc(F)c([C@@]3(C(F)F)N=C(N)CCC3(F)F)c2)co1 [Compound 4, (S)—N-(3-(6-amino-2-(difluoromethyl)-3,3-difluoro-2,3,4,5-tetrahydropyridin-2-yl)-4-fluorophenyl)-2-methyloxazole-4-carboxamide] |
| 20 | 1.36 | NC1=N[C@@](c2cc(NC(=O)c3cnc(C(F)F)cn3)ccc2F)(C(F)F)C(F)(F)CC1 [Compound 6, (S)—N-(3-(6-amino-2-(difluoromethyl)-3,3-difluoro-2,3,4,5-tetrahydropyridin-2-yl)-4-fluorophenyl)-5-(difluoromethyl)pyrazine-2-carboxamide] |
| 7.4 | 2.43 | N#Cc1ccc(C(=O)Nc2ccc(F)c([C@@]3(C(F)F)N=C(N)CCC3(F)F)c2)nc1 [Compound 7, (S)—N-(3-(6-amino-2-(difluoromethyl)-3,3-difluoro-2,3,4,5-tetrahydropyridin-2-yl)-4-fluorophenyl)-5-cyanopicolinamide] |
| 71 | 0.92 | Cc1csc(C(=O)Nc2ccc(F)c([C@@]3(C(F)F)N=C(N)CCC3(F)F)c2)n1 [Compound 8, (S)—N-(3-(6-amino-2-(difluoromethyl)-3,3-difluoro-2,3,4,5-tetrahydropyridin-2-yl)-4-fluoro-phenyl)-4-methylthiazole-2-carboxamide] |
| 6.9 | 11 | COc1cnc(C(=O)Nc2ccc(F)c([C@@]3(C(F)F)N=C(N)CCC3(F)F)c2)nc1 [Compound 9, (S)—N-(3-(6-amino-2-(difluoromethyl)-3,3-difluoro-2,3,4,5-tetrahydropyridin-2-yl)-4-fluorophenyl)-5-methoxypyrimidine-2-carboxamide] |
| 16 | 0.98 | COc1cnc(C(=O)Nc2ccc(F)c([C@@]3(C(F)F)N=C(N)CCC3(F)F)c2)c(C)n1 [Compound 10, (S)—N-(3-(6-amino-2-(difluoromethyl)-3,3-difluoro-2,3,4,5-tetrahydropyridin-2-yl)-4-fluorophenyl)-5-methoxy-3-methylpyrazine-2-carboxamide] |
| 7.8 | 2.68 | Cc1cc(C#N)cnc1C(=O)Nc1ccc(F)c([C@@]2(C(F)F)N=C(N)CCC2(F)F)c1 [Compound 11, (S)—N-(3-(6-amino-2-(difluoromethyl)-3,3-difluoro-2,3,4,5-tetrahydropyridin-2-yl)-4-fluorophenyl)-5-cyano-3-methylpicolinamide] |
| 6.1 | 1.31 | NC1=N[C@@](c2cc(NC(=O)c3ccc(Br)cn3)ccc2F)(C(F)F)C(F)(F)CC1 [Compound 12, (S)—N-(3-(6-amino-2-(difluoromethyl)-3,3-difluoro-2,3,4,5-tetrahydropyridin-2-yl)-4-fluorophenyl)-5-bromopicolinamide] |
